Structures can show the parent of a compound that is named as a salt.
Key:
PRKDC C4045 = biological target: T1, PRKDC C4045 (Homo sapiens, UniProt P78527); assay: isoTOP-ABPP of compound-treated primary human T cells; assay type: cell-based; details: for R value (DMSO/DMF): PRKDC C4045 (P78527)
T1 construct: endogenous in cells; host or cells: primary human T cells
Method: (§1) Cells were lysed by sonication and diluted to a concentration of 2 mg protein/mL. Protein concentrations were measured with the Bio-Rad DC™ protein assay reagents A and B (5000113, 5000114; Bio-Rad). 500 μL of proteome sample was treated with 100 μM of IA-alkyne probe using […] of a 10 mM DMSO stock. The labeling reactions were incubated at room temperature for 1 h upon which time the samples were conjugated to isotopically-labeled TEV-cleavable tags (TEV tags) by copper-catalyzed azide-alkyne cycloaddition (CuACC or ‘click chemistry’). 60 μL of heavy click chemistry reaction mixture was added to the DMSO-treated control sample and 60 μL of the light reaction mixture was added to the compound-treated sample. The click reaction mixture comprised TEV tags (10 μL of a 5 mM stock, light (fragment treated) or heavy (DMSO treated)), CuSO4 (10 μL of a 50 mM stock in water), and TBTA (30 μL of a 1.7 mM stock in 4:1 tBuOH:DMSO). To this was added TCEP (10 μL of a 50 mM stock). The reaction was performed for 1 h at room temperature.
(§2) The resulting pellets were resuspended in 500 μL of cold methanol by sonication and the heavy and light samples combined pairwise. Combined pellets were then washed with cold MeOH, after which the pellet was solubilized in PBS containing 1.2% SDS by sonication. The samples were heated at 90° C. for 5 min and subjected to streptavidin enrichment of probe-labeled proteins, sequential on-bead trypsin and TEV digestion, and liquid chromatography-tandem mass spectrometry (LC-MS/MS) according to the published isoTOP-ABPP protocols.
(§3) The quantification of heavy/light ratios (isoTOP-ABPP ratios, R values) was performed by in-house CIMAGE software using default parameters (3 MS1's per peak and signal to noise threshold of 2.5). Site-specific engagement of electrophilic compounds was assessed by blockade of IA-alkyne probe labeling. […] Overlapping peptides with the same labeled cysteine (for example, same local sequence around the labeled cysteines but different charge states, MudPIT segment numbers, or tryptic termini) were grouped together, and the median ratio from each group was recorded as the R value of the peptide for that run.

PKCθ C322 = biological target: T2, PKCθ C322 (Homo sapiens, UniProt Q04759); assay: as above; assay type: cell-based; details: 50 μM, 4 h
T2 construct: endogenous in cells; host or cells: primary human T cells
T2 sequence (Q04759 whole entry): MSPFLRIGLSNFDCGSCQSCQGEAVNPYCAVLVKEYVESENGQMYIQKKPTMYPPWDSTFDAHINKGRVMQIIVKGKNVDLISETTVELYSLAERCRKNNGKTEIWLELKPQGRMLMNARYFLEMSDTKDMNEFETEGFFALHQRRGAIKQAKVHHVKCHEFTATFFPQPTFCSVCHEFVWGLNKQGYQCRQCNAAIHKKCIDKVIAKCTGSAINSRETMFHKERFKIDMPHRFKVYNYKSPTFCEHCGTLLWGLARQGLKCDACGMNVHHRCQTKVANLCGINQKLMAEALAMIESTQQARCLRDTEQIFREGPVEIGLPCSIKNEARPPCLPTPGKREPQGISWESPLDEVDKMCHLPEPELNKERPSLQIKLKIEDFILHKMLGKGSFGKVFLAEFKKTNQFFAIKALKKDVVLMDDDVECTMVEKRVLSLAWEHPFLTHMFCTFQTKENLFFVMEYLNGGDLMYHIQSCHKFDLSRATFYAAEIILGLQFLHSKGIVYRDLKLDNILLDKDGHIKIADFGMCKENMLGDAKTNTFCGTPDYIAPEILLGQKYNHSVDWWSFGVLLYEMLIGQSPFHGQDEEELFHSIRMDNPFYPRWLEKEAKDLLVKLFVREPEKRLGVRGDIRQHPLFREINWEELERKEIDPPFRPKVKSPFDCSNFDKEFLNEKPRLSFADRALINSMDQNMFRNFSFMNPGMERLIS
Method: as §1, §2, §3

PKCθ C14/C17 = biological target: T3, PKCθ C14/C17 (Homo sapiens, UniProt Q04759); assay: as above; assay type: cell-based; details: for R value (DMSO/DMF): PRKCQ C14 (Q04759)
T3 construct: endogenous in cells; host or cells: primary human T cells
T3 sequence (Q04759 whole entry): as above
Method: as §1, §2, §3

THAP11 C48 (Q96EK4) = THAP11 C48 (Q96EK4) (Homo sapiens, UniProt Q96EK4); assay: Competitive isoTOP-ABPP in situ; assay type: cell-based; details: fragment 2 at 200 μM, MDA-MB-231 cells
SMAD2 C81 (Q15796) = SMAD2 C81 (Q15796) (Homo sapiens, UniProt Q15796); assay: Competitive isoTOP-ABPP in situ; assay type: cell-based; details: fragment 2 at 200 μM, MDA-MB-231 cells
MLTK (ZAK) C22 = biological target: T4, MLTK (ZAK) C22 (Homo sapiens, UniProt Q9NYL2); assay: Blockade of ibrutinib-derived probe 59 labeling of MLTK (gel-based ABPP); assay type: binding
T4 construct: expressed in transfected cells
Method: CuAAC was performed with 20 μM rhodamine-azide (50× stock in DMSO), 1 mM tris(2-carboxyethyl)phosphine hydrochloride (TCEP; fresh 50× stock in water, final concentration=1 mM), ligand (17× stock in DMSO:t-butanol 1:4, final concentration=100 μM) and 1 mM CuSO4 (50× stock in water, final concentration=1 mM). […] Quenched reactions were analyzed by SDS-PAGE and visualized by in-gel fluorescence. […] For MLTK, HEK 293T cells stably overexpressing MTLK^2 were treated with the indicated fragment electrophiles for 1 h, followed by labeling with 59 (1 μl, of 125 μM, final concentration=5 μM) for 1 h. These were followed by CuAAC conjugation to rhodamine-azide and evaluation by SDS-PAGE as described above.

NIT1 C165 (Q86X76) = NIT1 C165 (Q86X76) (Homo sapiens, UniProt Q86X76); assay: Competitive isoTOP-ABPP in situ; assay type: cell-based; details: fragment 4 at 100 μM, MDA-MB-231 cells
PGPEPI C149 (Q9NXJ5) = PGPEPI C149 (Q9NXJ5) (Homo sapiens, UniProt Q9NXJ5); assay: Competitive isoTOP-ABPP in situ; assay type: cell-based; details: fragment 4 at 100 μM, MDA-MB-231 cells
TIGAR = biological target: T5, TIGAR (Homo sapiens, UniProt Q9NQ88); assay: TIGAR activity assay; assay type: biochemical; details: WT-TIGAR, concentration series
T5 construct: His6 (N); made in house; host or cells: E. coli BL21(DE3)
T5 sequence (Q9NQ88 whole entry): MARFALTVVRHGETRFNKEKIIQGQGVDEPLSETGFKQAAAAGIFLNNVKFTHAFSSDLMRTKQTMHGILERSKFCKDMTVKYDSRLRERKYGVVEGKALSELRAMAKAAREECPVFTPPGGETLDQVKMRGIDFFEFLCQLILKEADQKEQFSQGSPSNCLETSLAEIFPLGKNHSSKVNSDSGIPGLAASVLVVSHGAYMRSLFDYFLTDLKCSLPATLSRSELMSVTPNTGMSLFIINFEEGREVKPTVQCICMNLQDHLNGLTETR
Method: TIGAR activity assay was conducted as described in Gerin et al. The Biochemical Journal 458:439-448 (2014). Formation of 3PG (3-phosphoglycerate) production from 23BPG (2,3-bisphosphoglycerate) was measured spectrophotometrically on a TECAN plate reader, measuring decrease in absorbance at 340 nm in clear, flat-bottom 96 well microplate (Corning® Costar®). 2 μL of recombinant TIGAR (10 mg/mL) was diluted into 1 mL dilution buffer (25 mM HEPES, pH 7.1, 25 mM KCl, 1 mM MgCl2). 25 μL of diluted protein was incubated for 1 h with the indicated concentration of compound (1 μL, 25× stock in DMSO). Then 75 μL of assay mixture comprised of 25 mM HEPES (pH 7.1), 25 mM KCl, 1 mM MgCl2, 0.5 mM NADH, 1 mM DTT, 1 mM 23BPG, 1 mM ATP-Mg, the equivalent of 1 μL each of rabbit muscle GAPDH (4000 units/mL, Sigma, G5537) and yeast PG kinase (6300 units/mL, Sigma, P7634) was added to the protein and decrease in absorbance was monitored at 340 nm. The background, calculated from samples lacking TIGAR, was subtracted from samples containing TIGAR. Experiments were performed in quadruplicate.

IDH1 = biological target: T6, IDH1 (Homo sapiens, UniProt O75874); assay: IDH1 NADP assay; assay type: biochemical
T6 construct: Full length cDNAs encoding for IDH1 (Open Biosystems, Clone ID: 3880331) and IMPDH2; His6 (C); made in house; host or cells: E. coli BL21(DE3)
Method: To 25 μL of this mixture was added 1 μL of the indicated compound (25× stock solution in DMSO) and the lysates were incubated for 1 h at room temperature in clear 96 well plates (Corning® Costar®). […] Absorbance was measured for 45 minutes and the relative activities were calculated from the change in absorbance for the linear portion of the curve.

T1 sequence (P78527 whole entry): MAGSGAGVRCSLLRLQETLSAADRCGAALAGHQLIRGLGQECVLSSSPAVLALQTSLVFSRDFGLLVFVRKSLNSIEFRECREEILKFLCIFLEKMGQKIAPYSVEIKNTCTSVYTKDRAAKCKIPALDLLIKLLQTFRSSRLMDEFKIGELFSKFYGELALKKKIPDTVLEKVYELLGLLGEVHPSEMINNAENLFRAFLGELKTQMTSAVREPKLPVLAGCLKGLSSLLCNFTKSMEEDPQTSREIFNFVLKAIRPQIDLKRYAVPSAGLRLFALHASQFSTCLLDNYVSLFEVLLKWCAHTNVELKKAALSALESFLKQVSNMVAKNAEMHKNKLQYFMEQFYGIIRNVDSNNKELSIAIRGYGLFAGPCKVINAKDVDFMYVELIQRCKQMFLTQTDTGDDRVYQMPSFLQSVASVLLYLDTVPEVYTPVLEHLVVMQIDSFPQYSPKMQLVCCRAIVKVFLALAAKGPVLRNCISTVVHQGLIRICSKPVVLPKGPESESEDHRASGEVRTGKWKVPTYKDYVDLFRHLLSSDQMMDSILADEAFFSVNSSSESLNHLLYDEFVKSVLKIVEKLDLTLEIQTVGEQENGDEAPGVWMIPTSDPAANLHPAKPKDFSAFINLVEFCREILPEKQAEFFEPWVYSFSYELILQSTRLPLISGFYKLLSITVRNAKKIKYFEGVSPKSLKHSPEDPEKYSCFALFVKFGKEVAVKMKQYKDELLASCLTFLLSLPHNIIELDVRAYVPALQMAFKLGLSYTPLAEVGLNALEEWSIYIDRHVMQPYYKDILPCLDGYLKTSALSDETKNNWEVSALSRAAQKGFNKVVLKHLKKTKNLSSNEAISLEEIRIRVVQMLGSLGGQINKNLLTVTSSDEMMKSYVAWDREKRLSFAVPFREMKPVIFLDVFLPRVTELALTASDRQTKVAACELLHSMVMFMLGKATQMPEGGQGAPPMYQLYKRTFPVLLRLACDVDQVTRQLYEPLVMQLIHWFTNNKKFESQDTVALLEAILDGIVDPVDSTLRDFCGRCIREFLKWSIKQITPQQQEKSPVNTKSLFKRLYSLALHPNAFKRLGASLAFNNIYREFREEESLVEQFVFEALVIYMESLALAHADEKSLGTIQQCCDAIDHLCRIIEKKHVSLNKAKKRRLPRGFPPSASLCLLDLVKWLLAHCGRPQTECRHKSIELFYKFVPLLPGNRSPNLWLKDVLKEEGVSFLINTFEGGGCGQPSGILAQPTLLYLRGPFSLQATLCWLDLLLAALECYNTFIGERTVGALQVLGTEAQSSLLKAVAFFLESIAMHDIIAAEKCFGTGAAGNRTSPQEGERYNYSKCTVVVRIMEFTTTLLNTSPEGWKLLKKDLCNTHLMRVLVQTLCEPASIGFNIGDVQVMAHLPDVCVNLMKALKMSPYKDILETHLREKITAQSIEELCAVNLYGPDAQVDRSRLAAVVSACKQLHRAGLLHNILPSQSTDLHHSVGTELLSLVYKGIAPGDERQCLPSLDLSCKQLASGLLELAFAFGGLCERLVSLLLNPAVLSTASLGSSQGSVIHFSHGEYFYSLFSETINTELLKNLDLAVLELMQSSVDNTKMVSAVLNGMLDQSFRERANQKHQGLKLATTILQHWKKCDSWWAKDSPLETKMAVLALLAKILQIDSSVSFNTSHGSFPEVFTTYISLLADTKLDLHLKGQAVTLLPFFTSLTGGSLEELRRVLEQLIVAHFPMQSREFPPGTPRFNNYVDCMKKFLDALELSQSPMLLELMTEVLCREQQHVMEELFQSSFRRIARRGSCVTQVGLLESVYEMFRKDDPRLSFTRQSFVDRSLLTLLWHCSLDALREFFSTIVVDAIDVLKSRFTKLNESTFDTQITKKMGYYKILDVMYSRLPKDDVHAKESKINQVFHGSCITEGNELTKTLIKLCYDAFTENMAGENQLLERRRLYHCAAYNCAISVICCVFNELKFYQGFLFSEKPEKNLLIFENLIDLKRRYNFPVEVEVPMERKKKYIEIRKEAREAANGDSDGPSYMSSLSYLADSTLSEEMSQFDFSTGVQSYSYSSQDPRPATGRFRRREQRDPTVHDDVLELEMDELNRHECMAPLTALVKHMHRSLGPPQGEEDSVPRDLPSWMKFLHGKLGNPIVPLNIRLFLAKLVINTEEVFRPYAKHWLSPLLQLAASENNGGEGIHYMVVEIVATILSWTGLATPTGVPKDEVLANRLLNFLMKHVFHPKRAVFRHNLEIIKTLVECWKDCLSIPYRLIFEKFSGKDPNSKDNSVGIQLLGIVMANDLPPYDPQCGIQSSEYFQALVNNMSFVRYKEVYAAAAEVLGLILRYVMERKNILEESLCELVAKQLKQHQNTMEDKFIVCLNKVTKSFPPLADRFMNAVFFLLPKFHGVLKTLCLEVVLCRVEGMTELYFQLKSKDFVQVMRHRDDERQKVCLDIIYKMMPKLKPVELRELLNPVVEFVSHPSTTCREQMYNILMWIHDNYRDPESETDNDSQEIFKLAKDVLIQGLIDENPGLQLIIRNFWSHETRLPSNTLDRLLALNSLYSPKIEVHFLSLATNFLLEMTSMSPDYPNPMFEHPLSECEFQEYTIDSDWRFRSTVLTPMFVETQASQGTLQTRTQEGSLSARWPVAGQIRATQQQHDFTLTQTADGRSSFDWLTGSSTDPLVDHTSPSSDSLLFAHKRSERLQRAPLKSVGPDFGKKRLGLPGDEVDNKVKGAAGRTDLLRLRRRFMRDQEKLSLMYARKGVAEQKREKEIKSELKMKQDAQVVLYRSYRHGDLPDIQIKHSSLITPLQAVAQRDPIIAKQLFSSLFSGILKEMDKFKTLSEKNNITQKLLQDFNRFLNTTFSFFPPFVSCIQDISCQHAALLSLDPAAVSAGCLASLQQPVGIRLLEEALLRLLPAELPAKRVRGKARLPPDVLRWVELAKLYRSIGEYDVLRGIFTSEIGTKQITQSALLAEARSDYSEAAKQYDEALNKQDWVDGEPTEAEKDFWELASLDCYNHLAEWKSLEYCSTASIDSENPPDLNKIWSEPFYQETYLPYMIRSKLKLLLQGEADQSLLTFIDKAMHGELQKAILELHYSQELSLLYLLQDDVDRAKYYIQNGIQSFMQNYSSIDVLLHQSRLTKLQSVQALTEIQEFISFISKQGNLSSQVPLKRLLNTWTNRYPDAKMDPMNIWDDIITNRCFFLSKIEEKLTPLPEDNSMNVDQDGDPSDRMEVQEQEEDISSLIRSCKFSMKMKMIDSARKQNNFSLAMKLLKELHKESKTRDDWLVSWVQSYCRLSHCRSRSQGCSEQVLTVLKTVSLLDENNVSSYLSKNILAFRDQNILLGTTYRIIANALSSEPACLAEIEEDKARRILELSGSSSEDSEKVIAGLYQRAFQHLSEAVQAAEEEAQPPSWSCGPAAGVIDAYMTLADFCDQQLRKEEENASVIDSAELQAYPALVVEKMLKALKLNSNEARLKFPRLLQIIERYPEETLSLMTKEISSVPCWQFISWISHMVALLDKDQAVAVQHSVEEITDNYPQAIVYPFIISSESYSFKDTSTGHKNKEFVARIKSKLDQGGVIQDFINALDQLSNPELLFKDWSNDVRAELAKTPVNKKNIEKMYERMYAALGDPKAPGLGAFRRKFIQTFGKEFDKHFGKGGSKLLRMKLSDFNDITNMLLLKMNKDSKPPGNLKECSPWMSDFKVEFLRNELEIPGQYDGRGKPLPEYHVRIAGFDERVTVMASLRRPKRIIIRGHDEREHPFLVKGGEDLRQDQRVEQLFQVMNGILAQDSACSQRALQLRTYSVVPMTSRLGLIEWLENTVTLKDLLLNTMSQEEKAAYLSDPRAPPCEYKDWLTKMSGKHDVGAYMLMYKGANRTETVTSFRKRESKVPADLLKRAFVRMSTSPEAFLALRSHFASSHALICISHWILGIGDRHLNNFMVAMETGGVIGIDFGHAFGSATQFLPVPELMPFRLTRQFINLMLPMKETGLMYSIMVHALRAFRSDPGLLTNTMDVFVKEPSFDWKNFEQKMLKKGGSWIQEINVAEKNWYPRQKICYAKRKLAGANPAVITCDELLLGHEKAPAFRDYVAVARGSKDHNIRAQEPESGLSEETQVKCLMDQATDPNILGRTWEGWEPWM

COC(=O)/C=C/C(=O)OC [DMF, dimethyl fumarate]
IA-alkyne reactivity of PRKDC C4045 (PRKDC C4045; 50 μM, 4 h): blocked | R value (DMSO/DMF) (PRKDC C4045; DMF 50 μM 1h): 4.14 | R value (DMSO/DMF) (PRKDC C4045; DMF 50 μM 2h): 10.53 | IA-alkyne reactivity of PKCθ C322 (PKCθ C322): unaffected | IA-alkyne reactivity of PKCθ C14 and C17 (PKCθ C14/C17; 50 μM, 4 h): blocked | R value (DMSO/DMF) (PKCθ C14/C17; DMF 10 μM 4h): 1.62 | R value (DMSO/DMF) (PKCθ C14/C17; DMF 25 μM 4h): 3.29 | R value (DMSO/DMF) (PKCθ C14/C17; DMF 50 μM 2h): 2.92 | R value (DMSO/DMF) (PKCθ C14/C17; DMF 50 μM 4h): 4.21

COc1ccc2c(c1)CCCN2C(=O)CCl [compound 2]
isoTOP-ABPP reactivity profile (ratio) 2_200 μM_in-situ_231 (THAP11 C48 (Q96EK4)): 7.9 | isoTOP-ABPP reactivity profile (ratio) 2_200 μM_in-situ_231 (SMAD2 C81 (Q15796)): 20.0

O=C(CCl)Nc1cc(C(F)(F)F)cc(C(F)(F)F)c1 [compound 3]
blockade of probe 59 labeling of MLTK (in words) (MLTK (ZAK) C22): inactive

COc1ccc(C2CC(c3cccs3)=NN2C(=O)CCl)cc1 (stereo not shown) [compound 4]
isoTOP-ABPP reactivity profile (ratio) 4_100 μM_in-situ_231 (NIT1 C165 (Q86X76)): 0.9 | isoTOP-ABPP reactivity profile (ratio) 4_100 μM_in-situ_231 (PGPEPI C149 (Q9NXJ5)): 20.0

C=CC(=O)N(c1ccccc1)c1ccc(Br)cc1 [compound 5]
plateau of inhibition of TIGAR substrate turnover (TIGAR): 70%

O=C(CCl)N1CCC(C(O)(c2ccccc2)c2ccccc2)CC1 [compound 20]
catalytic activity of WT-IDH1 (NADP+ to NADPH) (IDH1): blocked in a concentration-dependent manner
